The values that follow come from patent publication US20240327488A1, “CONNEXIN-46 PEPTIDE MODULATOR” (UNIVERSIDAD DEL DESARROLLO, priority 2023, published 2024).

What all share (type): cell-based, human
Test [1] relates to HeLa Cx46-GFP cells. Nature of the test: Tumor sphere formation on non-adherent surface. The text has this:
(B) Tumor spheres growing is a technique used to determine the cancer stem cells capacity. Hela cells transfected with GFP for a monolayer of cells when they a seeded in a non-adherent surface, and moreover they died after 14 days in culture. However, Hela cells transfected with Cx46GFP do form tumor spheres which survive at last for 14 days. […] (D) graphical comparison between the size of tumor spheres at day 14 under control conditions (outer line) and treated with the peptide (inner line). Plot show the quantification of the tumor sphere size between time 0 and day 14, both under control condition (upper line) and with the peptide (lower line).
Mimetic peptides of the Cx46 domains that would interact with c-Src, Akt or PI3k were designed, synthesized and evaluated for their ability to inhibit the formation of tumor spheres in vitro in Hela cells overexpressing or not Cx46. Briefly, the experiments were done with the following protocols.
Cell line cultures: The HeLa cell line was grown in Dulbecco's Modified Eagle Medium (DMEM) supplemented with 10% fetal bovine serum (FBS) and 1% penicillin 10,000 U/mL, streptomycin sulfate […] (P/S) at 37° C., 5% CO2 and 95% humidity. Every 2 weeks the presence of mycoplasma was analyzed, by means of staining with DAPI. Infected cells were treated with BioMyc-1 (100×) for two weeks.
Cell Transfection: Cells were transfected using Lipofectamine 2000 (Invitrogen). For this HeLa cell cultures were grown to reach 60% confluence. Cells are washed with serum-free DMEM twice and finally exposed to OptiMem™ (Invitrogen) plus 1 μg cDNA. The cDNA for GFP-linked human Cx46 was purchased from Promega. The plasmid also has a resistance to G418, which is an antibiotic that serves for the selection of cells that stably express Cx46-GFP. Cx46 expression was monitored by Western blot and immunofluorescence analysis.
However, Hela cells transfected with Cx46-GFP form large tumor spheres that remain alive for at least 14 days (FIG. 2B; Annex 1). […]

For test [2], the system named is Akt phosphorylation in S473. Briefly: Western blot of Akt phosphorylation at S473. On the procedure:
(A) Representative Western blot showing, the levels of phosphorylation at S473 (pAKT), total AKT (AKT) and loading control (actin). Different concentrations of TAT-Cx46-Src were tested, ranging between […]. (B) Plot showing the relative levels of pAKT with respect to total AKT at different concentrations of TAT-Cx46-Src. (n=3).
Western blots: Cells were washed three times with phosphate buffered saline
(PBS) pH: 7.4 and then lysed with RIPA buffer (150 mM NaCl, 20 mM Tris pH: 7.4; 0.5% Sodium Desoxycholate, 0.1% Sodium Dodecyl Sulfate (SDS), 1% Nonidet P-40 and a protease inhibitor cocktail tablet). Proteins were quantified using the Qubit™ protein Assay Kit in a Qubit™ Fluorometer following the manufacturer's instructions (ThermoFisher). Subsequently, Laemli buffer (4×) (62.5 mM Tris pH 6.8; 25% glycerol, 2% SDS, 0.01% bromophenol blue and 5% β-mercaptoethanol) was added to the cell lysate and was heated at 95° C. for 3 min, in a thermoblock. About 50 μg of proteins were loaded into each well of a 10% polyacrylamide gel under denaturing conditions (SDS-PAGE). Then the proteins were transferred to a polyvinylidene difluoride (PVDF) membrane by wet transfer for 2 h at 100 V in Tris-Glycine 20% methanol buffer. The membranes were blocked with 5% skimmed milk in Buffer Tris and 0.05% Tween 20 (T-TBS) for 1 h at room temperature under shaking. […]
(A western blot detects proteins with antibodies after separation by electrophoresis.)

For test [3], the system named is Tumor spheres formed by Hela cells transfected with Cx46GFP. Briefly: Cell viability of tumor spheres (7-AAD uptake). The protocol:
Tumor spheres formed by Hela cells transfected with Cx46GFP were grown for 14 days. […] TAT-Cx46-Src was added every 3 days (every time that culture media was replaced). At day 14th, 10 mM 7-AAD was added to the extracellular media.

Turning to “TAT-Cx46-Src: Mimetic peptide of the Cx46 404-410 C-terminal segment (MHQPPLP) fused with the cell-penetrating TAT peptide; blocks the Cx46/c-Src interaction (GRKKRRQRRRPQMHQPPLP)”, the “decrease of the size of tumor spheres” value in test [1] (100 μM, 10 days of treatment, HeLa Cx46-GFP cells) is “about 43%”. Also, the tumor sphere size entry in test [1] (100 mM added to the extracellular media every 3 days, Hela Cx46GFP, up to day 14 (FIG. 2C)) is recorded as “reduced tumor sphere size”. The “inhibition of the cancer stem cells (CSC) functional phenotype” value in test [1] (Hela cells (FIGS. 2C and D)) is “strong inhibition”. Also, the “Akt phosphorylation levels in S473” value in test [2] (100 μM, 24-h treatment, HeLa Cx46-GFP cells) was “strongly decreased”. Moreover, the “Akt phosphorylation in S473 (pAKT relative to total AKT)” value in test [2] (concentrations ranging between 0-100 mM, n=3 (FIG. 3)) was “decreased Akt phosphorylation”. In addition, the “uptake of 7-AAD dye” value in test [3] (day 14, 10 mM 7-AAD in extracellular media, 100 mM peptide every 3 days, n=3) was “shown uptake of this Dye”. The “death of cells in tumor spheres (cell viability studies)” value in test [3] (treatment with 100 μM, HeLa Cx46-GFP tumor spheres) is “promotes the death of cells in the center of tumor spheres”. Moreover, the “cell death of Hela cells Cx46GFP” value in test [3] (tumor spheres grown 14 days, 100 mM added every 3 days, n=3 (FIG. 4)) is on record as “increase cell death”.
